# In ChEMBL document CHEMBL4507302, “Data for DCP probe TP-020” (2021):
# What was measured:
# [1] = molecular target: Cyclin-dependent kinase 19 (Homo sapiens) (UniProt Q9BWU1); settings: Compound concentration 1000.0 nM
# [2] = molecular target: Cyclin-dependent kinase 17 (Homo sapiens) (UniProt Q00537); settings: Compound concentration 1000.0 nM
# [3] = molecular target: Serine/threonine-protein kinase PLK2 (Homo sapiens) (UniProt Q9NYY3); settings: Compound concentration 1000.0 nM
# [4] = molecular target: Mitogen-activated protein kinase kinase kinase kinase 2 (Homo sapiens) (UniProt Q12851); settings: Compound concentration 1000.0 nM
# [5] = molecular target: Muscarinic acetylcholine receptor M4 (Homo sapiens) (UniProt P08173); settings: Compound concentration 10.0 uM
# [6] = molecular target: LIM domain kinase 2 (Homo sapiens) (UniProt P53671); settings: Compound concentration 1000.0 nM
# [7] = molecular target: MAP/microtubule affinity-regulating kinase 4 (Homo sapiens) (UniProt Q96L34); settings: Compound concentration 1000.0 nM
# Sequence of MAP/microtubule affinity-regulating kinase 4 (Homo sapiens) (Q96L34 whole entry): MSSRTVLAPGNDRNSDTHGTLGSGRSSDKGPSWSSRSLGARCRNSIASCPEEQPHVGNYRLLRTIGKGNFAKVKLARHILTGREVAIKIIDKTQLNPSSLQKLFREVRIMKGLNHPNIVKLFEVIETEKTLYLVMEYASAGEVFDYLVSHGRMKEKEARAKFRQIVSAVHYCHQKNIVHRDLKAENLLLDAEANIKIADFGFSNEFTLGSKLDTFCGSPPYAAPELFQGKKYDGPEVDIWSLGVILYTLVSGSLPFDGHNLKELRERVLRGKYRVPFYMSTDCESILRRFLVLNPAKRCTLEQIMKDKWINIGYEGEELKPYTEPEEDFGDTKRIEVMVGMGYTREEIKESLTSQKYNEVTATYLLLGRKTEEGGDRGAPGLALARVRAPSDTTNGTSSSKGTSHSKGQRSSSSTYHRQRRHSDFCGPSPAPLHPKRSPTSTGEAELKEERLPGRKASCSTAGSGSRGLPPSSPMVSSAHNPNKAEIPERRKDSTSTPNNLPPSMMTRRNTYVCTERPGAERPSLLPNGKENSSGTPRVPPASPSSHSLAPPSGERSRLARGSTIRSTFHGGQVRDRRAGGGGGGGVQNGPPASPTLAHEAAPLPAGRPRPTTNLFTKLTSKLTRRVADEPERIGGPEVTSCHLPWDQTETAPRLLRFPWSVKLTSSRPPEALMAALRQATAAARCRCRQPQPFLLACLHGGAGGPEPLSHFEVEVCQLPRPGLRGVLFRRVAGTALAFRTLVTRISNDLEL
# [8] = molecular target: Serine/threonine-protein kinase SIK1 (Homo sapiens) (UniProt P57059); settings: Compound concentration 1000.0 nM
# [9] = molecular target: Mitogen-activated protein kinase 6 (Homo sapiens) (UniProt Q16659); settings: Compound concentration 1000.0 nM
# [10] = molecular target: Receptor-interacting serine/threonine-protein kinase 1 (Homo sapiens) (UniProt Q13546); settings: Compound concentration 1000.0 nM
# Sequence of Receptor-interacting serine/threonine-protein kinase 1 (Homo sapiens) (Q13546 whole entry, canonical isoform): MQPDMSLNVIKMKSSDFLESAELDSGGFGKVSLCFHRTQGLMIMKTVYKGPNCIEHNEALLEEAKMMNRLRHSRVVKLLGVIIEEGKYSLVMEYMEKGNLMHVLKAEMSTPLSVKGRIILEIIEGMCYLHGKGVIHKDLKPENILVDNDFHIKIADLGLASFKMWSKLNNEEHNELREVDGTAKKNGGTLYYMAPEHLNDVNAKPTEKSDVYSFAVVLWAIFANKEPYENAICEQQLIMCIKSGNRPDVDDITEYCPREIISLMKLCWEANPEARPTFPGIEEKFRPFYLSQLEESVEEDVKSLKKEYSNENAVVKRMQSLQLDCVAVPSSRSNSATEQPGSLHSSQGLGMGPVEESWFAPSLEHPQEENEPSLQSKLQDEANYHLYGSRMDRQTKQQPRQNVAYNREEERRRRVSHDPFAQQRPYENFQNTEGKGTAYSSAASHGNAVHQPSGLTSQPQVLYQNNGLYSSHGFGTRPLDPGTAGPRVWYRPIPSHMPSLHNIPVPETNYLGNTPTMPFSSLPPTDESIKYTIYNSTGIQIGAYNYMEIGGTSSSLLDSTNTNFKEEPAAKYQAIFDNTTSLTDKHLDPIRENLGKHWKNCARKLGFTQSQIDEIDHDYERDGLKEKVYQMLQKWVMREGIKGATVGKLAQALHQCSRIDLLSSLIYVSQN
# [11] = molecular target: Phosphatidylinositol 4,5-bisphosphate 3-kinase catalytic subunit gamma isoform (Homo sapiens) (UniProt P48736); settings: Compound concentration 1000.0 nM
# [12] = molecular target: Phosphatidylinositol 4-phosphate 3-kinase C2 domain-containing subunit beta (Homo sapiens) (UniProt O00750); settings: Compound concentration 1000.0 nM
# [13] = tested on: Tyrosine-protein kinase ABL1 (Homo sapiens), P00519 [Y253F]; settings: Compound concentration 1000.0 nM
# [14] = molecular target: Serine/threonine-protein kinase LATS1 (Homo sapiens) (UniProt O95835); settings: Compound concentration 1000.0 nM
# Sequence of Serine/threonine-protein kinase LATS1 (Homo sapiens) (O95835 whole entry): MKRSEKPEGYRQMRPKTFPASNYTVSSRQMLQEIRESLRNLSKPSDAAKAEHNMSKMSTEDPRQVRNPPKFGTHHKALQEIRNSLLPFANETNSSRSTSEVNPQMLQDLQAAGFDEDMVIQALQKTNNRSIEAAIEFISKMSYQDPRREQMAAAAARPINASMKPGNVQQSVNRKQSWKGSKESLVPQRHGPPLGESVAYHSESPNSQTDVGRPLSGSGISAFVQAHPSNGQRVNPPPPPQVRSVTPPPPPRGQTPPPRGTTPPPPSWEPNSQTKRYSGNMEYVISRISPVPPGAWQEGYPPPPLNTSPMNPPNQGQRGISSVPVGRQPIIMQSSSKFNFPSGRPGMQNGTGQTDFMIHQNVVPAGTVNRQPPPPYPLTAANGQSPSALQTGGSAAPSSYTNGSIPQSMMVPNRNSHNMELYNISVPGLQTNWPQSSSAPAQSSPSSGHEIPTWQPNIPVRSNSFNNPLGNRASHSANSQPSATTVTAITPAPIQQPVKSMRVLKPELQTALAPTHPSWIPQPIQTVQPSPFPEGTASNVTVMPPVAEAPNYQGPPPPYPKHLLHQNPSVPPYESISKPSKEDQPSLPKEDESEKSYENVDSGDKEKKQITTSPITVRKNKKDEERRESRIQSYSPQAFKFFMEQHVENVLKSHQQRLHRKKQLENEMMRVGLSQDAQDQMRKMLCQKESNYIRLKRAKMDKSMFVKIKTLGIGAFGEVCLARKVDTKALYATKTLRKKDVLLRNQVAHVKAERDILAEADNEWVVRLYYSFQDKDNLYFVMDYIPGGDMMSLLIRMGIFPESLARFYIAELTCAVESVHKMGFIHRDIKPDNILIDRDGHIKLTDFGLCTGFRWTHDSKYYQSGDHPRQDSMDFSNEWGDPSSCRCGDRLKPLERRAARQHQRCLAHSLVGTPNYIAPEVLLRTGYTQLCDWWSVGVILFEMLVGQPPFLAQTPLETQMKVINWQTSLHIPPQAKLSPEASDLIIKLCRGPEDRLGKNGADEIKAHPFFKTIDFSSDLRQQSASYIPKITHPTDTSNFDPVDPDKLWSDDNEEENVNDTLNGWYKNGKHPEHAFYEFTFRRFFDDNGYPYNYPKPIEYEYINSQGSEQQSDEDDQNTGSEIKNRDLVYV
# [15] = molecular target: Serine/threonine-protein kinase SIK3 (Homo sapiens) (UniProt Q9Y2K2); settings: Compound concentration 1000.0 nM
# [16] = molecular target: Histamine H2 receptor (Homo sapiens) (UniProt P25021); settings: Compound concentration 10.0 uM
# [17] = molecular target: Serine/threonine-protein kinase B-raf (Homo sapiens) (UniProt P15056); settings: Compound concentration 1000.0 nM
# [18] = molecular target: Kappa-type opioid receptor (Homo sapiens) (UniProt P41145); settings: Compound concentration 10.0 uM
# [19] = molecular target: Proto-oncogene tyrosine-protein kinase receptor Ret (Homo sapiens) (UniProt P07949); settings: Compound concentration 1000.0 nM
# [20] = molecular target: Muscarinic acetylcholine receptor M5 (Homo sapiens) (UniProt P08912); settings: Compound concentration 10.0 uM
# Sequence of Muscarinic acetylcholine receptor M5 (Homo sapiens) (P08912 whole entry): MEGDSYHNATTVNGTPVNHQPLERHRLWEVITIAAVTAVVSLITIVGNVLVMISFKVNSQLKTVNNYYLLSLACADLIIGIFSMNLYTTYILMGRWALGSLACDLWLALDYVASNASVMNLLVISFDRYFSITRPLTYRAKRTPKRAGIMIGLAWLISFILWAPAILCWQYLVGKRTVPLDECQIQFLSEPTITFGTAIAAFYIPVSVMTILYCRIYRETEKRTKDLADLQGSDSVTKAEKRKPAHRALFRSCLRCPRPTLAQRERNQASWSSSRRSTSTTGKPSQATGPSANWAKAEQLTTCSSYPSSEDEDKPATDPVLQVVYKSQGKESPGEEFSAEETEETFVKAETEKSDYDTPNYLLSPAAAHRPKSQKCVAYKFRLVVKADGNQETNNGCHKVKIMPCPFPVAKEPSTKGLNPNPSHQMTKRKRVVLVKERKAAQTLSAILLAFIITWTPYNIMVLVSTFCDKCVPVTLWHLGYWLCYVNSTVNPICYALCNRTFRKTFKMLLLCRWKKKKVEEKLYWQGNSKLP
# [21] = tested on: Epidermal growth factor receptor (Homo sapiens), P00533 [L858R,T790M]; settings: Compound concentration 1000.0 nM
# [22] = molecular target: BMP-2-inducible protein kinase (Homo sapiens) (UniProt Q9NSY1); settings: Compound concentration 1000.0 nM
# [23] = molecular target: Casein kinase I isoform gamma-3 (Homo sapiens) (UniProt Q9Y6M4); settings: Compound concentration 1000.0 nM
# [24] = molecular target: SRSF protein kinase 2 (Homo sapiens) (UniProt P78362); settings: Compound concentration 1000.0 nM
# [25] = molecular target: 5-hydroxytryptamine receptor 5A (Homo sapiens) (UniProt P47898); settings: Compound concentration 10.0 uM
# Sequence of 5-hydroxytryptamine receptor 5A (Homo sapiens) (P47898 whole entry): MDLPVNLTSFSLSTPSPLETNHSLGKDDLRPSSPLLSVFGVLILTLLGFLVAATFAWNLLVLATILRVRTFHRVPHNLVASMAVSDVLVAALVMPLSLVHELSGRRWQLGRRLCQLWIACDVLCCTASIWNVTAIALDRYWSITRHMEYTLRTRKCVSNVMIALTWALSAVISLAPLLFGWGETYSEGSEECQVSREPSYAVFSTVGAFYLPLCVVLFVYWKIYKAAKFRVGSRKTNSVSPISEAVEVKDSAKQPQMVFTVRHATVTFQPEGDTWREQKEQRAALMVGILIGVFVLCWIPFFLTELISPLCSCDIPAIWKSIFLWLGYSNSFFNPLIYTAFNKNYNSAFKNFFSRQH
# [26] = molecular target: Tyrosine-protein kinase Lyn (Homo sapiens) (UniProt P07948); settings: Compound concentration 1000.0 nM
# [27] = molecular target: Homeodomain-interacting protein kinase 2 (Homo sapiens) (UniProt Q9H2X6); settings: Compound concentration 1000.0 nM
# [28] = molecular target: Proto-oncogene tyrosine-protein kinase ROS (Homo sapiens) (UniProt P08922); settings: Compound concentration 1000.0 nM
# [29] = molecular target: Tyrosine-protein kinase JAK1 (Homo sapiens) (UniProt P23458); settings: Compound concentration 1000.0 nM
# [30] = molecular target: Fibroblast growth factor receptor 3 (Homo sapiens) (UniProt P22607); settings: Compound concentration 1000.0 nM
# [31] = molecular target: Serine/threonine-protein kinase MRCK alpha (Homo sapiens) (UniProt Q5VT25); settings: Compound concentration 1000.0 nM
# [32] = molecular target: Serine/threonine-protein kinase DCLK1 (Homo sapiens) (UniProt O15075); settings: Compound concentration 1000.0 nM
# Sequence of Serine/threonine-protein kinase DCLK1 (Homo sapiens) (O15075 whole entry): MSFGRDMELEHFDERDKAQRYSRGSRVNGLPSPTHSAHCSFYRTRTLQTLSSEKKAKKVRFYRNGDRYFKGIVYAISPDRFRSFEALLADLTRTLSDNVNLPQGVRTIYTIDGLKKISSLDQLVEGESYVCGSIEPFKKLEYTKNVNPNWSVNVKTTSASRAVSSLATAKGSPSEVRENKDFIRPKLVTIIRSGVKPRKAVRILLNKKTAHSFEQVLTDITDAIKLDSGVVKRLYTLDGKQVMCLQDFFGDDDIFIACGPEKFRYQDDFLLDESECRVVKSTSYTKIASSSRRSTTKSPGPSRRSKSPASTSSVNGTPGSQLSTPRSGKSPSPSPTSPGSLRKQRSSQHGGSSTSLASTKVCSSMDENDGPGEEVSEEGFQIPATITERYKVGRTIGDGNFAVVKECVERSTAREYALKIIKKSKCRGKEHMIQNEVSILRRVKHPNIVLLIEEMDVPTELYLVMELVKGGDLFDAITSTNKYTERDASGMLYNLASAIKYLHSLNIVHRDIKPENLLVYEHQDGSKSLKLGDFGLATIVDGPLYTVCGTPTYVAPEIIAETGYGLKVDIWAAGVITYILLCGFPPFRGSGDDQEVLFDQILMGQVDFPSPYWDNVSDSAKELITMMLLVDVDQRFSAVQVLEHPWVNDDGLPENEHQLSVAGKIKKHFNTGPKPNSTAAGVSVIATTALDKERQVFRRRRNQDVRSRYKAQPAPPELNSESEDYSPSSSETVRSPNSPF
# [33] = molecular target: Calcium/calmodulin-dependent protein kinase type 1D (Homo sapiens) (UniProt Q8IU85); settings: Compound concentration 1000.0 nM
# [34] = molecular target: G protein-coupled receptor kinase 4 (Homo sapiens) (UniProt P32298); settings: Compound concentration 1000.0 nM
# [35] = molecular target: RAC-alpha serine/threonine-protein kinase (Homo sapiens) (UniProt P31749); settings: Compound concentration 1000.0 nM
# [36] = molecular target: 3-phosphoinositide-dependent protein kinase 1 (Homo sapiens) (UniProt O15530); settings: Compound concentration 1000.0 nM
# [37] = tested on: Serine/threonine-protein kinase B-raf (Homo sapiens), P15056 [V600E]; settings: Compound concentration 1000.0 nM
# [38] = molecular target: Dual specificity mitogen-activated protein kinase kinase 5 (Homo sapiens) (UniProt Q13163); settings: Compound concentration 1000.0 nM
# Sequence of Dual specificity mitogen-activated protein kinase kinase 5 (Homo sapiens) (Q13163 whole entry): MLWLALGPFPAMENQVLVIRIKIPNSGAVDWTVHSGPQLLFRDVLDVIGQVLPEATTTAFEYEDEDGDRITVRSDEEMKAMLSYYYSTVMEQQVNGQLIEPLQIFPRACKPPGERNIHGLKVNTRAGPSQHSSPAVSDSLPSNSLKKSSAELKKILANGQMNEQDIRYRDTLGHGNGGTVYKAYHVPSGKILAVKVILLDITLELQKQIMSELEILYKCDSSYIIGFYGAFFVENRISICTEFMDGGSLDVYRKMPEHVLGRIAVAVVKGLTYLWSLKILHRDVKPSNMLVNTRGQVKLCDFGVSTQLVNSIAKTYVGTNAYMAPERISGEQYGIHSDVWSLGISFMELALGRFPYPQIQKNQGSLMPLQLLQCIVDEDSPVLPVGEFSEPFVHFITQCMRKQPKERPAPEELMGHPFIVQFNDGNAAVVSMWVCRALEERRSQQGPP
# [39] = molecular target: Serine/threonine-protein kinase MAK (Homo sapiens) (UniProt P20794); settings: Compound concentration 1000.0 nM
# [40] = molecular target: Cyclin-dependent kinase 7 (Homo sapiens) (UniProt P50613); settings: Compound concentration 1000.0 nM
# Sequence of Cyclin-dependent kinase 7 (Homo sapiens) (P50613 whole entry): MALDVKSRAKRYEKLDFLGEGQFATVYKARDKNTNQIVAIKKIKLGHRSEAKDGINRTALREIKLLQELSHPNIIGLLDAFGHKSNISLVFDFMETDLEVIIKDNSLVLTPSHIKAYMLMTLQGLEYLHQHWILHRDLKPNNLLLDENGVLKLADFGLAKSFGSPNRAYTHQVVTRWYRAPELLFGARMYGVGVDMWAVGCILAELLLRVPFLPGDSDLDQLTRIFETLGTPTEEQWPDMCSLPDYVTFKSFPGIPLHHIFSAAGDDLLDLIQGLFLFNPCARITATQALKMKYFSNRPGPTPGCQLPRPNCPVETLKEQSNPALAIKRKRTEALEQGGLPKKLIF
# [41] = molecular target: Casein kinase II subunit alpha' (Homo sapiens) (UniProt P19784); settings: Compound concentration 1000.0 nM
# [42] = molecular target: Platelet-derived growth factor receptor alpha (Homo sapiens) (UniProt P16234); settings: Compound concentration 1000.0 nM
# [43] = tested on: Phosphatidylinositol 4,5-bisphosphate 3-kinase catalytic subunit alpha isoform (Homo sapiens), P42336 [H1047Y]; settings: Compound concentration 1000.0 nM
# [44] = molecular target: Mitogen-activated protein kinase kinase kinase kinase 1 (Homo sapiens) (UniProt Q92918); settings: Compound concentration 1000.0 nM
# [45] = molecular target: G protein-coupled receptor kinase 3 (Homo sapiens) (UniProt P35626); settings: Compound concentration 1000.0 nM
compound,measurement,setting,value
Nc1cnc(N2CCc3cc(S(=O)(=O)Nc4c(F)cc(Cl)cc4F)cc(N4CCCC4=O)c32)nc1,residual activity,[1],100%
same,residual activity,[2],100%
same,residual activity,[3],100%
same,residual activity,[4],90%
same,inhibition,[5],9.99%
same,residual activity,[6],100%
same,residual activity,[7],79%
same,residual activity,[8],100%
same,residual activity,[9],100%
same,residual activity,[10],92%
same,residual activity,[11],81%
same,residual activity,[12],83%
same,residual activity,[13],94%
same,residual activity,[14],100%
same,residual activity,[15],83%
same,inhibition,[16],8.19%
same,residual activity,[17],98%
same,inhibition,[18],14.9%
same,residual activity,[19],89%
same,inhibition,[20],1.45%
same,residual activity,[21],77%
same,residual activity,[22],88%
same,residual activity,[23],78%
same,residual activity,[24],100%
same,inhibition,[25],-4.87%
same,residual activity,[26],88%
same,residual activity,[27],100%
same,residual activity,[28],99%
same,residual activity,[29],100%
same,residual activity,[30],100%
same,residual activity,[31],100%
same,residual activity,[32],100%
same,residual activity,[33],97%
same,residual activity,[34],100%
same,residual activity,[35],100%
same,residual activity,[36],98%
same,residual activity,[37],100%
same,residual activity,[38],84%
same,residual activity,[39],96%
same,residual activity,[40],100%
same,residual activity,[41],98%
same,residual activity,[42],89%
same,residual activity,[43],100%
same,residual activity,[44],83%
same,residual activity,[45],100%
Cn1nc(C(F)(F)F)cc1-c1cnc(N2CCc3cc(S(=O)(=O)Nc4c(F)cc(Cl)cc4F)cc(N4CCCC4=O)c32)nc1 [TP-020],residual activity,[1],100%
same,residual activity,[2],100%
same,residual activity,[3],91%
same,residual activity,[4],95%
same,inhibition,[5],41.2%
same,residual activity,[6],100%
same,residual activity,[7],88%
same,residual activity,[8],100%
same,residual activity,[9],100%
same,residual activity,[10],100%
same,residual activity,[11],88%
same,residual activity,[12],99%
same,residual activity,[13],95%
same,residual activity,[14],99%
same,residual activity,[15],94%
same,inhibition,[16],12.1%
same,residual activity,[17],82%
same,inhibition,[18],14.6%
same,residual activity,[19],87%
same,inhibition,[20],7.43%
same,residual activity,[21],100%
same,residual activity,[22],92%
same,residual activity,[23],81%
same,residual activity,[24],34%
same,inhibition,[25],7.89%
same,residual activity,[26],100%
same,residual activity,[27],74%
same,residual activity,[28],100%
same,residual activity,[29],100%
same,residual activity,[30],100%
same,residual activity,[31],100%
same,residual activity,[32],93%
same,residual activity,[33],99%
same,residual activity,[34],100%
same,residual activity,[35],100%
same,residual activity,[36],100%
same,residual activity,[37],100%
same,residual activity,[38],83%
same,residual activity,[39],100%
same,residual activity,[40],75%
same,residual activity,[41],84%
same,residual activity,[42],88%
same,residual activity,[43],76%
same,residual activity,[44],100%
same,residual activity,[45],82%
